{"source": "paper PMC9975698", "about": "“Hyperoside alleviates toxicity of β-amyloid via endoplasmic reticulum-mitochondrial calcium signal transduction cascade in APP/PS1 double transgenic Alzheimer's disease mice” (Redox Biology, 2023)", "key": {"Aβ aggregates": {"molecular_target": "T1, Aβ aggregates (Homo sapiens, UniProt P05067)", "T1 construct": "purchased DGpeptites, Hangzhou, CHINA", "T1 sequence (P05067 672-713 limits assumed)": "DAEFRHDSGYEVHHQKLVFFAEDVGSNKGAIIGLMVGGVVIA", "assay": "Biolayer interferometry (BLI) analysis", "type": "binding", "procedure": "200 μL of solution containing 200 μg of the Aβ peptide was incubated at 37 °C for 5 days. EZ-Link NHS-LC-LC-Biotin (Thermo Scientific, USA) was dissolved in DMSO to a concentration of 10 mM. Aβ aggregates was biotinylated in a 1:0.5 M ratio of biotin reagent and incubated for 30 min at room temperature before being added to a 96-well plate (Greiner Bio-One, PN:655,209). Biotinylation was ascertained by loading the mixture onto super streptavidin (SSA) capacity tips (ForteìBIO, CA, USA) and detected by the FortéBIO Octet Red instrument. Additionally, SSA biosensors were pre-wetted with PBS for the recording of baselines. Successful biotinylated Aβ aggregates solution was collected and immobilized onto SSA tips overnight at 4 °C. HYP dissolved in DMSO was diluted to an appropriate concentration with PBS to a final 200 μL/well volume. Control wells were added with an equal amount of DMSO. All experiments consisted of repeated cycles of four significant steps: wash (300 s), baseline (120 s), association (120 s), and dissociation (120 s). The association, dissociation plot, and kinetic constants were analyzed with ForteìBIO data analysis software."}, "APP": {"system": "APP", "assay": "Real-time quantitative PCR of APP mRNA in HT22 cells", "type": "cell-based", "settings": "HT22 cells after HYP treatment", "procedure": "RNA was extracted from the HT22 cell using FavorPrep™ Blood/Cultured Cell Total RNA Purification Mini Kit (Favorgen Biotech Corp.). RNA concentration was determined using the NanoDrop 2000c Spectrophotometer (Thermo Scientific). 1 μg of total RNA was used to reverse transcribe to its corresponding cDNA by using the Transcriptor Universal cDNA Master mix (Roche, USA). Quantitative PCR was then performed with the addition of PowerUp™ SYBR® Green Master Mix (Applied Biosystems) using the ViiA™ 7 Real-Time PCR System (Applied Biosystems). Specific primers (Tech Dragon Ltd., Hong Kong) were designed by employing ThermoFisher Scientific's online OligoPerfect™ Designer software and then verified with NCBI's Primer‐BLAST software to confirm specific recognition of the target genes. Gene expression levels were normalized to actin (control) and analyzed using the ΔΔCT method. Three independent experiments with three replicates per group were analyzed for each primer."}, "β-secretase": {"molecular_target": "T2, β-secretase (Mus musculus, UniProt P56818)", "T2 construct": "50 μL supernatant (cell lysate) was transferred to each well in the 96-well plate; endogenous in cells; host or cells: HT22 cells", "T2 sequence (P56818 46-501)": "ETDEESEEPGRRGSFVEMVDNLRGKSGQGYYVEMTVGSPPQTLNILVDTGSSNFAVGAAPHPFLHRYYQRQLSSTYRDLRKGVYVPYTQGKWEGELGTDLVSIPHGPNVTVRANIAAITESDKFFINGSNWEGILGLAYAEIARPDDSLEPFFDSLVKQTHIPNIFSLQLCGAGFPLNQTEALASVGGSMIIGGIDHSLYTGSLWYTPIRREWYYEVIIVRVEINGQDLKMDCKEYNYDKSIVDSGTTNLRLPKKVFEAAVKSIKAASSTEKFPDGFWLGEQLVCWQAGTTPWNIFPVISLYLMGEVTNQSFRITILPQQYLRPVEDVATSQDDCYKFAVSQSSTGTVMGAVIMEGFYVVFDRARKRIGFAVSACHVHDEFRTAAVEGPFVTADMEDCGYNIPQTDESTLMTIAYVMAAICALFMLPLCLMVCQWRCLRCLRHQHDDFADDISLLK", "assay": "BACE-1 inhibition assay (β-secretase activity in HT22 cell lysate)", "type": "cell-based", "settings": "HT22 cells, HYP 20–80 μM, 24 h", "procedure": "The assay was performed in a 96-well flat-bottom white plate using β-Secretase Activity Fluorometric Assay Kit (Biovision, CA, USA). To begin, HT22 cells were treated with HYP (20–80 μM) for 24 h and then collected by centrifugation with ice-cold extraction buffer added for homogenization. After centrifugation, 50 μL supernatant (cell lysate) was transferred to each well in the 96-well plate. 2 μL of active β-secretase (protein concentration: 4 μg/μL) was added to the 50 μL of extraction buffer as the positive control. For negative control, 2 μL of the β-secretase inhibitor was added to the 50 μL of sample well. 2 μL of each of the tested samples were added into each sample well for inhibitory activity evaluation. Following compounds addition, 50 μL of 2X reaction buffer was added with a gentle mix and incubation for 20 min at 37 °C before adding 2 μL of the β-secretase substrate. The plate was then covered and incubated in the dark at 37 °C for 1 h. Samples were then measured in a fluorescent 96-well plate reader (Ex/Em = 345/500 nm). Background readings produced from the substrate without adding secretase were subtracted from all samples."}, "APP and APP-β": {"system": "APP and APP-β", "assay": "Western blot of APP and APP-β in HT22 cells", "type": "cell-based", "procedure": "After HYP treatment, the cells were lysed with RIPA. Protein concentrations were determined by Bio-Rad protein assay (Bio-Rad Laboratories, CA, USA). After electrophoretic separation, the gels were blotted and stained with primary antibodies. Binding of antibodies was visualized with peroxidase-coupled secondary antibodies using ECL Western Blotting detection reagents (Invitrogen, Scotland, UK). Band intensities were quantified using ImageJ software. Data were obtained from three independent experiments."}, "[1]": {"system": "Aβ oligomers, Aβ fibrils, Aβ (1–16)", "assay": "Dot blot of Aβ forms in HT22 cells", "type": "cell-based", "procedure": "4 μL of prepared cell or animal sample protein solutions were dotted for adsorption onto methanol-pre-activated PVDF membranes and then blocked with 5% non-fat dry milk in Tris-buffered saline and Tween 20 for 1 h. The samples were incubated overnight at 4 °C with anti-amyloid fibril primary antibody [mOC87] (Abcam, MA, USA), anti-amyloid oligomer A11 (Invitrogen, CA, USA) or purified anti-β-amyloid (1–16) antibody (clone 6E10) (Biolegend, CA, USA) (1:1000), followed by HRP-conjugated secondary antibody. Protein bands were detected using Super Signal Sensitive ECL Western Blotting Detection Reagent (Beyotime, Beijing, China) and observed using a gel imaging device (Amersham Imager 800, GE, Tokyo, Japan)."}, "APP/PS1 mice": {"system": "APP/PS1 mice", "assay": "Western blot of Bcl-2, Bax and cyto-c in cortex and hippocampus lysates", "type": "in vivo", "settings": "8 weeks of HYP treatment vs APP/PS1 untreated group", "procedure": "After HYP treatment, the cells were lysed with RIPA. Protein concentrations were determined by Bio-Rad protein assay (Bio-Rad Laboratories, CA, USA). After electrophoretic separation, the gels were blotted and stained with primary antibodies. Binding of antibodies was visualized with peroxidase-coupled secondary antibodies using ECL Western Blotting detection reagents (Invitrogen, Scotland, UK). Band intensities were quantified using ImageJ software. Data were obtained from three independent experiments. All animal care and experimental procedures were performed in accordance with the “Institutional Animal Care and User Committee Guidelines” of the Macau University of Science and Technology. APP/PSEN1 (APP/PS1) mice (N000175) were purchased from the Nanjing Institute of Biomedical Sciences, Nanjing University, China, weighing 25 ± 5 g. The animals were housed in a temperature-controlled room with a 12 h light/dark cycle and given ad libitum food and water. Male mice were randomly divided into the following 6 experimental groups. (a) wild-type group (n = 6), (b) APP/PS1 group (n = 6), (c) HYP (20 mg/kg group) (n = 7), (d) HYP (40 mg/kg) group (n = 8), (e) HYP (80 mg/kg) group (n = 8) and (f) memantine (MEM) (10 mg/kg) positive control group (n = 8). […]"}}, "data": [{"smiles": "O=c1c(O[C@@H]2O[C@H](CO)[C@H](O)[C@H](O)[C@H]2O)c(-c2ccc(O)c(O)c2)oc2cc(O)cc(O)c12", "note": "[HYP, Quercetin-3-O-β-D-galactopyranoside]", "values": [{"measurement": "Kids", "setting": "Aβ aggregates; Fig. 1G, dissociation rate constant", "value": 0.0343, "unit": "s⁻¹"}, {"measurement": "Kd", "setting": "Aβ aggregates; HYP 6.25–200 μM, biotinylated Aβ aggregate", "value": 14.5, "unit": "µM"}, {"measurement": "mRNA transcriptional level of APP", "setting": "APP", "value": "no significant effect"}, {"measurement": "β-secretase activity", "setting": "β-secretase", "value": "inhibited β-secretase activity"}, {"measurement": "protein level of APP and APP-β", "setting": "APP and APP-β", "value": "reduced the protein level of both APP and APP-β"}, {"measurement": "level of different form of Aβ", "setting": "[1]; HT22 cells incubated with exogenous Aβ for 24 h", "value": "lowered the level of different form of Aβ"}, {"measurement": "endogenous level of Aβ oligomers, Aβ fibrils and total Aβ (1–16)", "setting": "[1]; HT22 cells without exogenous Aβ", "value": "lowered the endogenous level of Aβ Oligomers (A11), Aβ Fibrils (mOC87) and total Aβ (1–16) (6E10)"}, {"measurement": "level of Bax, cyto-c, Bcl-2 and Bax/Bcl-2 ratio", "setting": "APP/PS1 mice", "value": "a decrease in the level of both Bax and cyto-c, an increase in Bcl-2 expression, and a reduction in the Bax/Bcl-2 ratio"}]}]}
